Data as given in publication PMC10179701, “Towards Protection of Nucleic Acids from Herbicide Attack: Self-Assembly of Betaines Based on Pillar[5]arene with Glyphosate and DNA” (International Journal of Molecular Sciences, 2023).
Marks after values point to notes of the source that are not given here.

Columns and labels:
[1] = Dynamic light scattering of macrocycle aggregates in water; type: physicochemical; details: H2O, 298 K
Description: The next stage of the work was the study of aggregation properties of both previously synthesized ester derivatives of amino acids 1 and 2, and macrocyclic betaine derivatives 3 and 4 by dynamic light scattering (DLS). The study was carried out in water in the 1 × 10^–6–1 × 10^–4 M concentration range (Figures S11–S22). The size of associates increases with decreasing macrocycle 1 concentration in solution (Table 1). A different pattern is observed for betaine derivative 3. Thus, the particles become coarser, and the polydispersity index (PDI) of the systems increased with an increase in compound 3 concentration, which is probably due to the formation of β-sheets by oligopeptide substituents. The presence of two oppositely charged fragments in one substituent leads to the fact that compound 3 becomes similar to surfactant molecules in terms of its aggregation properties.

A549 cells [2] = test: MTT test, A549 cells; details: for IC50: A549, MTT, 24 h; for cytotoxic activity: A549, concentration range 2–100 μg/mL
Description: (§1) The next stage of this work was the study of pillar[5]arenes 1–4 ability to inhibit the viability and proliferative activity of embryonic lung epithelial (LEC) and human lung adenocarcinoma (A549) cells using the MTT test.
(§2) Further, the ability of GIS to inhibit the viability and proliferative activity of LEC and A549 cells was studied by the MTT test. […] The average inhibitory concentration (IC50) was calculated for GIS (Table 3). […]
(§3) 1.6. Cytotoxicity of pillar[5]arenes 1–4, GIS and their mixtures on A549 and LEC Cell Lines […]
(§4) activity of LEC cells and A549 cells was investigated using the MTT test according to [2]. A549 – human alveolar adenocarcinoma cell line (ATCC, Rockville, Maryland, USA) and cow embryo lung epithelial (LEC) cells (Animal Cell Culture Collection of Russian Academy of Agricultural Science, Kazan, Russia) were cultured in DMEM (GIBCO, Waltham, MA, USA) medium supplemented with 10% serum and 100 units/mL of penicillin (PanEco, Moscow, Russia) and streptomycin (PanEco, Moscow, Russia) in a humidified atmosphere with 5% CO2 at 37 °C. Cells were seeded in 96‐well plates at a concentration of 10^4 cells/well. After 24 h of cultivation, the medium was removed from the wells and replaced with a fresh one with the addition of the test substances. The volume of the culture medium in the wells was 100
(§5) μL. After 24 h incubation of cells in the presence of substances, the medium in the wells was replaced with a fresh one containing MTT reagent at a final concentration of 0.5 mg/mL. The cells were incubated with MTT for 4 h at 37 °C in an atmosphere of 5% CO2. Then, the medium was aspirated from the wells and 100 μL of dimethyl sulfoxide was added. Probes were incubated at 37 °C for 15 min in the dark for the formazan crystals to dissolve. The optical density of the formazan solution in the wells was measured using a plate reader (BioRad xMarkTM Microplate Spectrophotometer, USA) at a wavelength of 570 nm.
(§6) Three series of experiments were carried out with at least 8 replications for each variant in the series. […]

LEC cells = test: MTT test, LEC cells; details: for IC50: MTT, 24 h; for cytotoxic activity: concentration range 2–100 μg/mL
Description: as §1, §2, §3, §4, §5, §6

A549 cells [3] = test: MTT assay, combined action of macrocycles with GIS on A549 cells; type: cell-based, human; details: A549, pillararene 1 × 10^–5 M with GIS 3.47 × 10^–2 M
Description: The ability to inhibit the viability and proliferative activity of A549 cells of macrocycles 1–4 in the presence of GIS was studied using the MTT assay. […] The developed approach opens up the possibility of creating pillar[5]arene-based herbicide antidotes. […]
fresh one with the addition of the test substances.
Then, the medium was aspirated from the wells
and 100 μL of dimethyl sulfoxide was added.
the formazan crystals to dissolve. […]
substances. […] After 24 h of incubation cells were […]

DNA from salmon sperm = test: UV-Vis spectrophotometric titration, association with DNA from salmon sperm; type: binding; details: 1:1 complex, Tris-HCl buffer pH 7.44, CDNA 2.5 × 10^–7 M, BindFit
Description: The interaction of GIS with a series of synthesized pillar[5]arenes 1–4 and DNA was studied by UV-Vis spectroscopy. UV-Vis spectroscopy is a universal method to study the complex properties of synthetic receptors. The interaction of GIS with DNA from salmon sperm was initially studied (Figure 5). DNA from salmon sperm was chosen as a model substrate due to its relatively low molecular weight and small size. The experiments were carried out in a Tris-HCl buffer system (pH = 7.44).
The association constants were determined by spectrophotometric titration to quantify the interaction of DNA with GIS. The UV-Vis spectra of the DNA–GIS system were recorded in such a way that the DNA concentration remained constant (2.5 × 10^–7 M), and the herbicide concentration ratio increased from 1:0.3 to 1:10 (Figure 5b). The obtained experimental data were processed by the BindFit program. The association constant of a 1:1 complex was calculated (Figure S23). The logarithm of the association constant of DNA with GIS was determined as lgKa = 4.92. […] However, in this case, the association constant of the complexes was determined with a large error.
Further, the interaction of macrocycles 1–4 with the DNA from salmon sperm in Tris-HCl was studied by UV-Vis spectroscopy. […] The association constant of compound 4-DNA complex was determined by spectrophotometric titration. […] The logarithm of the association constant of pillar[5]arene 4 with the DNA was determined as lgKa (4–DNA) = 5.24.
The association constant of compound 1-DNA complex was also determined by spectrophotometric titration (Figure S25b). The logarithm of the association constant of pillar[5]arene 1 with DNA was determined as lgKa(1–DNA) = 4.88 (Figure S27). […]
buffer solution. The UV spectra of the solutions were then recorded. The stability constant of complex was calculated by Bindfit. […]
volume of 3 mL with Tris‐HCl buffer solution. The UV spectra of the solutions were then recorded. The stability constant of each complex was calculated by Bindfit. […]
stability constant of complex was calculated by Bindfit. […]

| polydispersity index (PDI) ([1]; 1 × 10^–4 M) | size of aggregates d ([1]; 1 × 10^–4 M) [nm] | polydispersity index (PDI) ([1]; 1 × 10^–5 M) | size of aggregates d ([1]; 1 × 10^–5 M) [nm] | polydispersity index (PDI) ([1]; 1 × 10^–6 M) | size of aggregates d ([1]; 1 × 10^–6 M) [nm] | IC50 (A549 cells [2]) | SMILES | cytotoxic activity (A549 cells [2]) | IC50 (LEC cells) | cytotoxic activity (LEC cells) | change of toxicity on combined action with GIS (A549 cells [3]) | lgKa, logarithm of the association constant with DNA (DNA from salmon sperm) | concentration at which cytotoxic effect was recorded (A549 cells [2]; A549) [µg/mL] | concentration without ability to reduce viability (A549 cells [2]; A549) [µg/mL] | concentration at which cytotoxic effect was recorded (LEC cells) [µg/mL] | concentration without ability to reduce viability (LEC cells) [µg/mL] |
| --- | --- | --- | --- | --- | --- | --- | --- | --- | --- | --- | --- | --- | --- | --- | --- | --- |
| 0.37 | 249 ± 17 | 0.35 | 286 ± 57 | 0.39 | 441 ± 81 | >100 * μg/mL | CCOC(=O)CNC(=O)CNC(=O)C[N+](C)(C)CCCNC(=O)COc1cc2c(OCC(=O)NCCC[N+](C)(C)CC(=O)NCC(=O)NCC(=O)OCC)cc1Cc1cc(OCC(=O)NCCC[N+](C)(C)CC(=O)NCC(=O)NCC(=O)OCC)c(cc1OCC(=O)NCCC[N+](C)(C)CC(=O)NCC(=O)NCC(=O)OCC)Cc1cc(OCC(=O)NCCC[N+](C)(C)CC(=O)NCC(=O)NCC(=O)OCC)c(cc1OCC(=O)NCCC[N+](C)(C)CC(=O)NCC(=O)NCC(=O)OCC)Cc1cc(OCC(=O)NCCC[N+](C)(C)CC(=O)NCC(=O)NCC(=O)OCC)c(cc1OCC(=O)NCCC[N+](C)(C)CC(=O)NCC(=O)NCC(=O)OCC)Cc1cc(OCC(=O)NCCC[N+](C)(C)CC(=O)NCC(=O)NCC(=O)OCC)c(cc1OCC(=O)NCCC[N+](C)(C)CC(=O)NCC(=O)NCC(=O)OCC)C2.[Br-].[Br-].[Br-].[Br-].[Br-].[Br-].[Br-].[Br-].[Br-].[Br-] [Compound 1] | did not show statistically significant cytotoxic activity | >100 * μg/mL | did not show statistically significant cytotoxic activity | slight decrease in toxicity | 4.88 |  |  |  |  |
| 0.55 | 565 ± 12 | 0.43 | 290 ± 38 | 0.39 | 276 ± 63 | >100 * μg/mL | C[N+](C)(CCCNC(=O)COc1cc2c(OCC(=O)NCCC[N+](C)(C)CC(=O)NCC(=O)NCC(=O)[O-])cc1Cc1cc(OCC(=O)NCCC[N+](C)(C)CC(=O)NCC(=O)NCC(=O)[O-])c(cc1OCC(=O)NCCC[N+](C)(C)CC(=O)NCC(=O)NCC(=O)[O-])Cc1cc(OCC(=O)NCCC[N+](C)(C)CC(=O)NCC(=O)NCC(=O)[O-])c(cc1OCC(=O)NCCC[N+](C)(C)CC(=O)NCC(=O)NCC(=O)[O-])Cc1cc(OCC(=O)NCCC[N+](C)(C)CC(=O)NCC(=O)NCC(=O)[O-])c(cc1OCC(=O)NCCC[N+](C)(C)CC(=O)NCC(=O)NCC(=O)[O-])Cc1cc(OCC(=O)NCCC[N+](C)(C)CC(=O)NCC(=O)NCC(=O)[O-])c(cc1OCC(=O)NCCC[N+](C)(C)CC(=O)NCC(=O)NCC(=O)[O-])C2)CC(=O)NCC(=O)NCC(=O)[O-] [Compound 3] | did not show statistically significant cytotoxic activity | >100 * μg/mL | did not show statistically significant cytotoxic activity | No significant differences |  |  |  |  |  |

| SMILES | polydispersity index (PDI) ([1]; 1 × 10^–4 M) | size of aggregates d ([1]; 1 × 10^–4 M) [nm] | polydispersity index (PDI) ([1]; 1 × 10^–5 M) | size of aggregates d ([1]; 1 × 10^–5 M) [nm] | polydispersity index (PDI) ([1]; 1 × 10^–6 M) | size of aggregates d ([1]; 1 × 10^–6 M) [nm] | IC50 (A549 cells [2]) | cytotoxic activity (A549 cells [2]) | IC50 (LEC cells) | cytotoxic activity (LEC cells) | change of toxicity on combined action with GIS (A549 cells [3]) | lgKa, logarithm of the association constant with DNA (DNA from salmon sperm) | concentration at which cytotoxic effect was recorded (A549 cells [2]; A549) [µg/mL] | concentration without ability to reduce viability (A549 cells [2]; A549) [µg/mL] | concentration at which cytotoxic effect was recorded (LEC cells) [µg/mL] | concentration without ability to reduce viability (LEC cells) [µg/mL] |
| --- | --- | --- | --- | --- | --- | --- | --- | --- | --- | --- | --- | --- | --- | --- | --- | --- |
| CC(C)N.O=C(O)CNCP(=O)(O)O [GIS, glyphosate isopropylamine salt, reference compound] |  |  |  |  |  |  | 10,180 μg/mL |  | 11,430 μg/mL |  |  | 4.92 | ≥ 10000 | ≤ 5000 | ≥ 10000 | ≤ 5000 |
